In patent US9271960B2, “Tetrahydrocarbazoles as active agents for inhibiting VEGF production by translational control” (PTC Therapeutics, Inc., priority 2004, dated 2016):
Structures can show the parent of a compound that is named as a salt. Where two headings read alike, the source gives them in different places.

System: VEGF
Test: Hypoxia-inducible endogenous VEGF expression ELISA in HeLa cells
Type: cell-based
Settings: VEGF protein by ELISA
Summary of the method: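 HeLa cells held 24–48 h in hypoxia (1% O2) with a concentration series of compound; VEGF secreted into media quantified by ELISA against a standard curve. Parallel Cell Titer Glo viability under identical conditions gives CC50; EC50 from percent-inhibition curves.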

[1] = Homo sapiens, HeLa, purchased compounds 156-188, hypoxic conditions, read-out: ELISA Activity
[2] = Homo sapiens, HeLa, purchased compounds 156-188, hypoxic conditions, read-out: ELISA EC50
[3] = Homo sapiens, HeLa, compounds 191-239, hypoxic conditions, read-out: ELISA Activity EC50

SMILES	EC50 [1] [nM]	EC50 [2] [nM]	EC50 [3] [nM]	other results
C1=C(c2ccc3c(c2)c2c4n3CCN(Cc3ccccc3)C4CCC2)C2CCN1CC2 (centres unmarked) [Compound 166, 8-(1-Aza-bicyclo[2.2.2]oct-2-en-3-yl)-3-benzyl-2,3,3a,4,5,6-hexahydro-1H-pyrazino[3,2,1-jk]carbazole]	> 1000	6630		
CC(C)COc1ccc2c(c1)c1c3n2CCNC3CCC1 (centres unmarked) [Compound 167, 8-Isobutoxy-2,3,3a,4,5,6-hexahydro-1H-pyrazino[3,2,1-jk]carbazole]	> 1000	6930		
OCCNC1CCCc2c1[nH]c1ccc(Br)cc21 (centres unmarked) [Compound 168, 2-(6-Bromo-2,3,4,9-tetrahydro-1H carbazol-1-ylamino)-ethanol hydrochloride]	> 1000	7720		
Cc1ccc2c(c1)c1c3n2CCNC3CCC1 (centres unmarked) [Compound 169, 8-Methyl-2,3,3a,4,5,6-hexahydro-1H-pyrazino[3,2,1-jk]carbazole hydrochloride]	> 1000	> 10000		
Cc1ccc2c(c1)c1c3n2CCN(C(=O)CN2CCN(C(=O)c4ccco4)CC2)C3CCC1 (centres unmarked) [Compound 170, 2-[4-(Furan-2-carbonyl)-piperazin-1-yl]-(8-methyl-1,2,3,3a,4,5,6-hexahydro-pyrazino[3,2,1-jk]carbazol-3-yl)-ethanone]	> 1000	> 10000		
Cc1ccc2c(c1)c1c3n2CCN(C(=O)c2ccccc2Cl)C3CCC1 (centres unmarked) [Compound 171, (2-Chloro-phenyl)-(8-methyl-1,2,3a,4,5,6-hexahydro-pyrazino[3,2,1-jk]carbazol-3-yl)-methanone]	> 1000	> 10000		
COc1ccc(NC(=S)N2CCn3c4c(c5cc(C)ccc53)CCCC42)cc1 (centres unmarked) [Compound 172, 8-Methyl-1,2,3a,4,5,6-hexahydro-pyrazino[3,2,1-jk]carbazole-3-carbothioic acid (4-methoxy-phenyl)-amide]	> 1000	> 10000		
Cc1ccc2c(c1)c1c3n2CCCNC3CCC1 (centres unmarked) [Compound 173, 11-Methyl-1,2,3,3a,4,5,6,7-octahydro-[1,4]diazepino[3,2,1-jk]carbazole]	> 1000	> 10000		
CC(=O)N(Cc1ccccc1)C1CCCc2c1[nH]c1ccc(C)cc21 (centres unmarked) [Compound 174, N-Benzyl-N-(6-methyl-2,3,4,9-tetrahydro-1H-carbazol-1-yl)-acetamide]	> 1000	> 10000		
CC(=O)N1CCn2c3c(c4cc(C)ccc42)CCCC31 (centres unmarked) [Compound 175, 1-(8-Methyl-1,2,3a,4,5,6-hexahydro-pyrazino[3,2,1-jk]carbazol-3-yl)-ethanone]	> 1000	> 10000		
Cc1ccc2c(c1)c1c3n2CCN(CC(C)O)C3CCC1 (centres unmarked) [Compound 176, 1-(8-Methyl-1,2,3a,4,5,6-hexahydro-pyrazino[3,2,1-jk]carbazoI-3-yl)-propan-2-ol]	> 1000	> 10000		
Cc1ccc2[nH]c3c(c2c1)CCCC3NCCCO (centres unmarked) [Compound 177, 3-(6-Methyl-2,3,4,9-tetrahydro-1H-carbazol-1-ylamino)-propan-1-ol]	> 1000	> 10000		
CC(=O)NC1CCCc2c1[nH]c1ccc(C)cc21 (centres unmarked) [Compound 178, N-(6-Methyl-2,3,4,9-tetrahydro-1H-carbazol-1-yl)-acetamide]	> 1000	> 10000		
Cc1ccc2c(c1)c1c3n2CCN(C(C)c2ccccc2)C3CCC1 (centres unmarked) [Compound 179, 8-Methyl-3-(1-phenyl-ethyl)-2,3,3a,4,5,6-hexahydro-1H-pyrazino[3,2,1-jk]carbazole]	> 1000	> 10000		
Cc1ccc2c(c1)c1c3n2CCCN(Cc2cccc(Cl)c2)C3CCC1 (centres unmarked) [Compound 180, 4-(3-Chloro-benzyl)-11-methyl-1,2,3,3a,4,5,6,7-octahydro-[1,4]diazepino[3,2,1-jk]carbazole]	> 1000	> 10000		
CC(=O)Nc1ccc(CN2CCCn3c4c(c5cc(C)ccc53)CCCC42)cc1 (centres unmarked) [Compound 181, N-[4-(11-Methyl-1,2,3,3a,6,7-hexahydro-5H-[1,4]diazepino[3,2,1-jk]carbazol-4-ylmethyl)-phenyl]-acetamide]	> 1000	> 10000		
CC(=O)SCCC(=O)N1CCn2c3c(c4cc(C)ccc42)CCCC31 (stereo not drawn) [Compound 182, Thioacetic acid S-[3-(8-methyl-1,2,3a,4,5,6-hexahydro-pyrazino[3,2,1-jk]carbazol-3-yl)-3-oxo-propyl] ester]	> 1000	> 10000		
CC(=O)N1CCn2c3c(c4cc(C(=O)O)ccc42)CCCC31 (centres unmarked) [Compound 184, 3-Acetyl-2.3,3a,4,5,6-hexahydro-1H-pyrazino[3,2,1-jk]carbazole-8-carboxylic acid]	> 1000	> 10000		
CCNC1CCCc2c1[nH]c1ccc(C)cc21 (centres unmarked) [Compound 185, Ethyl-(6-methyl-2,3,4,9-tetrahydro-1H-carbazol-1-yl)-amine]	> 1000	> 10000		

SMILES	EC50 [1] [nM]	EC50 [2] [nM]	EC50 [3] [nM]	other results
OCCNC1CCCc2c1[nH]c1ccc(Br)cc21 (centres unmarked) [Compound 186, 2-(6-Bromo-2,3,4,9-tetrahydro-1H-carbazol-1-ylamino)-ethanol hydrochloride]				EC50 (purchased compounds 156-188, hypoxic conditions, hydrochloride, read-out: ELISA EC50): 12200 nM; EC50 (purchased compounds 156-188, hypoxic conditions, read-out: ELISA Activity): > 1000 nM
COc1ccc(Oc2ccc3c(c2)c2c4n3CCNC4CCC2)cc1 (centres unmarked) [Compound 187, 8-(4-Methoxy-phenoxy)-2,3,3a,4,5,6-hexahydro-1H-pyrazino[3,2,1-jk]carbazole methanesulfonic acid]	> 1000	18000		
Cc1cc(C(=O)NC2CCCc3c2[nH]c2ccc(Br)cc32)no1 (centres unmarked) [Compound 191]			< 10	
COc1ccc(C2CCCc3c2[nH]c2ccc(Br)cc32)cc1 (centres unmarked) [Compound 192]			< 10	
Oc1ccc(C2CCCc3c2[nH]c2ccc(Br)cc32)cc1 (centres unmarked) [Compound 193]			10 to 40	
Brc1ccc2[nH]c3c(c2c1)CCCC3c1ccc(OCC2CO2)cc1 (centres unmarked) [Compound 194]			< 10	
OC(COc1ccc(C2CCCc3c2[nH]c2ccc(Br)cc32)cc1)Cn1ccnc1 (centres unmarked) [Compound 195]			< 10	
OC(COc1ccc(C2CCCc3c2[nH]c2ccc(Br)cc32)cc1)CN1CCOCC1 (centres unmarked) [Compound 196]			< 10	
CC(=O)N1CCN(CC(O)COc2ccc(C3CCCc4c3[nH]c3ccc(Br)cc43)cc2)CC1 (centres unmarked) [Compound 197]			< 10	
COCCN(CCOC)CC(O)COc1ccc(C2CCCc3c2[nH]c2ccc(Br)cc32)cc1 (centres unmarked) [Compound 198]			< 10	
OC(COc1ccc(C2CCCc3c2[nH]c2ccc(Br)cc32)cc1)CN1CCSCC1 (centres unmarked) [Compound 199]			< 10	
COCCN(C)CC(O)COc1ccc(C2CCCc3c2[nH]c2ccc(Br)cc32)cc1 (centres unmarked) [Compound 200]			< 10	
CN1CCN(CC(O)COc2ccc(C3CCCc4c3[nH]c3ccc(Br)cc43)cc2)CC1 (centres unmarked) [Compound 201]			10 to 40	
OC(COc1ccc(C2CCCc3c2[nH]c2ccc(Br)cc32)cc1)Cn1ccnn1 (centres unmarked) [Compound 202]			< 10	
OC(COc1ccc(C2CCCc3c2[nH]c2ccc(Br)cc32)cc1)Cn1cncn1 (centres unmarked) [Compound 203]			10 to 40	
CC(=O)N1CCN(CCCOc2ccc(C3CCCc4c3[nH]c3ccc(Br)cc43)cc2)CC1 (centres unmarked) [Compound 204]			10 to 40	
COCCN(CCCOc1ccc(C2CCCc3c2[nH]c2ccc(Br)cc32)cc1)CCOC (centres unmarked) [Compound 205]			10 to 40	
Brc1ccc2[nH]c3c(c2c1)CCCC3c1ccc(OCCCN2CCSCC2)cc1 (centres unmarked) [Compound 206]			< 10	
COCCN(C)CCCOc1ccc(C2CCCc3c2[nH]c2ccc(Br)cc32)cc1 (centres unmarked) [Compound 207]			10 to 40	

SMILES	EC50 [1] [nM]	EC50 [2] [nM]	EC50 [3] [nM]	other results
CN1CCN(CCCOc2ccc(C3CCCc4c3[nH]c3ccc(Br)cc43)cc2)CC1 (centres unmarked) [Compound 208]			40 to 200	
Brc1ccc2[nH]c3c(c2c1)CCCC3c1ccc(OCCCn2ccnn2)cc1 (centres unmarked) [Compound 209]			< 10	
Brc1ccc2[nH]c3c(c2c1)CCCC3c1ccc(OCCCN2CCOCC2)cc1 (centres unmarked) [Compound 210]			< 10	
Brc1ccc2[nH]c3c(c2c1)CCCC3c1ccc(OCCCn2ccnc2)cc1 (centres unmarked) [Compound 211]			< 10	
OCC(O)COc1ccc(C2CCCc3c2[nH]c2ccc(Br)cc32)cc1 (centres unmarked) [Compound 212]			< 10	
OCC(O)COc1ccc(C2CCCc3c2[nH]c2ccc(Cl)cc32)cc1 (centres unmarked) [Compound 213]			10 to 40	
CC(=O)N1CCN(CC(O)COc2ccc(C3CCCc4c3[nH]c3ccc(Cl)cc43)cc2)CC1 (centres unmarked) [Compound 214]			40 to 200	
OC(COc1ccc(C2CCCc3c2[nH]c2ccc(Cl)cc32)cc1)CN1CCOCC1 (centres unmarked) [Compound 215]			10 to 40	
COCCN(CCOC)CC(O)COc1ccc(C2CCCc3c2[nH]c2ccc(Cl)cc32)cc1 (centres unmarked) [Compound 216]			10 to 40	
OC(COc1ccc(C2CCCc3c2[nH]c2ccc(Cl)cc32)cc1)CN1CCSCC1 (centres unmarked) [Compound 217]			10 to 40	
COCCN(C)CC(O)COc1ccc(C2CCCc3c2[nH]c2ccc(Cl)cc32)cc1 (centres unmarked) [Compound 218]			10 to 40	
CN1CCN(CC(O)COc2ccc(C3CCCc4c3[nH]c3ccc(Cl)cc43)cc2)CC1 (centres unmarked) [Compound 219]			10 to 40	
OC(COc1ccc(C2CCCc3c2[nH]c2ccc(Cl)cc32)cc1)Cn1ccnc1 (centres unmarked) [Compound 220]			10 to 40	
OC(COc1ccc(C2CCCc3c2[nH]c2ccc(Cl)cc32)cc1)Cn1ccnn1 (centres unmarked) [Compound 221]			10 to 40	
OC(COc1ccc(C2CCCc3c2[nH]c2ccc(Cl)cc32)cc1)Cn1cncn1 (centres unmarked) [Compound 222]			40 to 200	
Oc1ccc(C2CCCc3c2[nH]c2ccc(Cl)cc32)cc1 (centres unmarked) [Compound 223]			40 to 200	
Clc1ccc2[nH]c3c(c2c1)CCCC3c1ccc(OCC2CO2)cc1 (centres unmarked) [Compound 224]			< 10	
OC(COc1ccc(C2CCCCc3c2[nH]c2ccc(Br)cc32)cc1)CN1CCOCC1 (centres unmarked) [Compound 225]			40 to 200	
